In ChEMBL document CHEMBL1143710, “Synthesis, antifungal and antimicrobial activity of alkylphospholipids” (Bioorg Med Chem, 2007):
Values after ≈ are worked out from the molar mass of the structure shown. Active and inactive are the calls of the source. The calls are words filed in the database; no cut-off is given here.

What was measured:
[1] = system: Candida albicans; test: Antifungal activity against Candida albicans ATCC 10231; format: functional
[2] = Toxicity assessed as haemolytic activity against human erythrocytes at 17.5 uM; format: cell-based, Erythrocyte; conditions: read-out: Activity
[3] = system: Staphylococcus aureus; test: Antibacterial activity against Staphylococcus aureus ATCC 25923 after 24 hrs; format: functional; conditions: ATCC 25923, 24 h
[4] = Toxicity assessed as haemolytic activity against human erythrocytes at 88 uM; format: cell-based, Erythrocyte; conditions: read-out: Activity
[5] = system: Staphylococcus aureus; test: Antibacterial activity against methicillin-resistant Staphylococcus aureus after 24 hrs; format: functional
[6] = Toxicity assessed as haemolytic activity against human erythrocytes at 44 uM; format: cell-based, Erythrocyte; conditions: read-out: Activity
[7] = system: Cryptococcus neoformans; test: Antifungal activity against Cryptococcus neoformans ATCC 90112; format: functional
[8] = Toxicity assessed as haemolytic activity against human erythrocytes at 350 uM; format: cell-based, Erythrocyte; conditions: read-out: Activity
[9] = Toxicity assessed as haemolytic activity against human erythrocytes at 175 uM; format: cell-based, Erythrocyte; conditions: read-out: Activity
[10] = system: Escherichia coli; test: Antibacterial activity against Escherichia coli ATCC 25922 after 24 hrs; format: functional; conditions: ATCC 25922, 24 h
[11] = Toxicity assessed as haemolytic activity against human erythrocytes at 3.5 uM; format: cell-based, Erythrocyte; conditions: read-out: Activity
[12] = target: T1, Phospholipase B (Cryptococcus neoformans) (UniProt Q9P8P2); test: Inhibition of […] activity of Cryptococcus neoformans var. grubi H99 secreted PLB1 at 250 uM by radiometric assay method
T1 sequence (whole entry): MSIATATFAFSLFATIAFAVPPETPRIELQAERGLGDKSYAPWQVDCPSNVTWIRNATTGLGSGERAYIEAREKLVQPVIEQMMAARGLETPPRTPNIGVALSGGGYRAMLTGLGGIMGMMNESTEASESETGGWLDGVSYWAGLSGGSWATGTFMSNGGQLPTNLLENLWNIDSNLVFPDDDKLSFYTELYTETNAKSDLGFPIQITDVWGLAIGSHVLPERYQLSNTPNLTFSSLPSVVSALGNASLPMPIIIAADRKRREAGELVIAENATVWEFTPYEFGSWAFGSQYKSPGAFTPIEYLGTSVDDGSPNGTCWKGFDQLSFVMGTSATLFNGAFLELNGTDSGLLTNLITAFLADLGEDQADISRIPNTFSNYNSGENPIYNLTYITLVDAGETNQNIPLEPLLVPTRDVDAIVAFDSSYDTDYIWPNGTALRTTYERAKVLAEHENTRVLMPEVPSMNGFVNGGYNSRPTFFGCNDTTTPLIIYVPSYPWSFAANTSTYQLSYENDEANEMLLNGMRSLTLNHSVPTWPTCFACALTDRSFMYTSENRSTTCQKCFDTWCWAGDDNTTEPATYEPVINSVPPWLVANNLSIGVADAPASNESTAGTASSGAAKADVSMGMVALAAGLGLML

[13] = target: T1, Phospholipase B (Cryptococcus neoformans); test: Inhibition of lysophosphatidic acid acyltransferase activity of Cryptococcus neoformans var. grubi H99 secreted PLB1 at 25 uM by radiometric assay method
[14] = system: Enterococcus; test: Antibacterial activity against vancomycin-resistant Enterococcus ATCC 51299 after 24 hrs; format: functional; conditions: ATCC 51299, 24 h
[15] = target: T1, Phospholipase B (Cryptococcus neoformans); test: Inhibition of […] activity of Cryptococcus neoformans var. grubi H99 secreted PLB1 at 25 uM by radiometric assay method
[16] = system: Streptococcus pneumoniae; test: Antibacterial activity against Streptococcus pneumoniae ATCC 46919 after 24 hrs; format: functional; conditions: ATCC 46919, 24 h
[17] = system: Pseudomonas aeruginosa; test: Antibacterial activity against Pseudomonas aeruginosa ATCC 27853 after 24 hrs; format: functional; conditions: ATCC 27853, 24 h
[18] = target: T1, Phospholipase B (Cryptococcus neoformans); test: Inhibition of lysophosphatidic acid acyltransferase activity of Cryptococcus neoformans var. grubi H99 secreted PLB1 at 250 uM by radiometric assay method
[19] = target: T1, Phospholipase B (Cryptococcus neoformans); test: Inhibition of phospholipase B activity of Cryptococcus neoformans var. grubi H99 secreted PLB1 by radiometric assay method

Compound	MIC [1]	hemolysis at 17.5 µM [2]	MIC [3]	hemolysis at 88 µM [4]	MIC [5]	hemolysis at 44 µM [6]	MIC [7]	hemolysis at 350 µM [8]	hemolysis at 175 µM [9]	MIC [10]	hemolysis at 3.5 µM [11]	Activity [12]	Activity [13]	MIC [14]	Activity [15]	MIC [16]	MIC [17]	Activity [18]	Activity [19]
CCCCCCCCCCCCCCCCCCOCC(COP(=O)([O-])OCC[N+](C)(C)C)OC (stereo unspecified) [EDELFOSINE]	5.5 µM (≈ 2.88 µg/mL)	0%	44 µM (≈ 23 µg/mL)	83%	11 µM (≈ 5.76 µg/mL)	13%	> 350 µM	100%	100%	> 350 µM	0%								
CCCCCCCCCCCCCCCCOP(=O)([O-])OCC[N+](C)(C)C [MILTEFOSINE]	5.5 µM (≈ 2.24 µg/mL)	0%	44 µM (≈ 17.9 µg/mL)	25%	22 µM (≈ 8.97 µg/mL)	5%	2.75 µM (≈ 1.12 µg/mL)	100%	95%	> 350 µM	0%	Active	Active	44 µM (≈ 17.9 µg/mL)	inactive	11 µM (≈ 4.48 µg/mL)	> 600 µM	Active	
CC1(C)S[C@@H]2[C@H](NC(=O)[C@H](N)c3ccc(O)cc3)C(=O)N2[C@H]1C(=O)O [AMOXICILLIN]			0.7 µM (≈ 0.256 µg/mL)							22 µM (≈ 8.04 µg/mL)									
CCCCCCCCCCCCCCCCCCOP(=O)([O-])OCC[N+](C)(C)C [OCTADECYLPHOSPHONOCHOLINE]	1.4 µM (≈ 0.61 µg/mL)	0%	22 µM (≈ 9.58 µg/mL)	92%	22 µM (≈ 9.58 µg/mL)	60%	1.4 µM (≈ 0.61 µg/mL)	100%	100%	> 350 µM	0%	Active			inactive			Active	
CCCCCCCC/C=C\CCCCCCCCCCCCOP(=O)([O-])OCC[N+](C)(C)C [ERUFOSINE]	44 µM (≈ 21.5 µg/mL)	0%	> 350 µM	15%	22 µM (≈ 10.8 µg/mL)	0%	22 µM (≈ 10.8 µg/mL)	100%	90%	> 350 µM	0%			11 µM (≈ 5.39 µg/mL)					
CCCCCCCCCOC(=O)CCCCCOP(=O)([O-])OCC[N+](C)(C)C	> 350 µM	0%		0%		0%	175 µM (≈ 74.1 µg/mL)		0%		0%								
CCCCC(CC)CNC(=O)CCCCCOP(=O)([O-])OCC[N+](C)(C)C (stereo unspecified)	> 350 µM	0%	> 350 µM	0%	> 350 µM	0%	> 350 µM		0%	> 350 µM	0%			> 350 µM					
CCCCCCCCCCCCCCCCCCOCC(O)COP(=O)([O-])OCC[N+](C)(C)C (stereo unspecified)	> 350 µM	0%	22 µM (≈ 11.2 µg/mL)	86%	11 µM (≈ 5.61 µg/mL)	10%	88 µM (≈ 44.9 µg/mL)	100%	100%	> 350 µM	0%			11 µM (≈ 5.61 µg/mL)					
CN[C@H](CC(C)C)C(=O)N[C@H]1C(=O)N[C@@H](CC(N)=O)C(=O)N[C@H]2C(=O)N[C@H]3C(=O)N[C@H](C(=O)N[C@H](C(=O)O)c4cc(O)cc(O)c4-c4cc3ccc4O)[C@H](O)c3ccc(c(Cl)c3)Oc3cc2cc(c3O[C@@H]2O[C@H](CO)[C@@H](O)[C@H](O)[C@H]2O[C@H]2C[C@](C)(N)[C@H](O)[C@H](C)O2)Oc2ccc(cc2Cl)[C@H]1O [VANCOMYCIN]														0.7 µM (≈ 1.01 µg/mL)					
C[C@@H]1[C@H](O)[C@@H](C)/C=C/C=C/C=C/C=C/C=C/C=C/C=C/[C@H](O[C@@H]2O[C@H](C)[C@@H](O)[C@H](N)[C@@H]2O)C[C@@H]2O[C@](O)(C[C@@H](O)C[C@@H](O)[C@H](O)CC[C@@H](O)C[C@@H](O)CC(=O)O[C@H]1C)C[C@H](O)[C@H]2C(=O)O [AMPHOTERICIN B]	0.54 µM (≈ 0.499 µg/mL)						0.54 µM (≈ 0.499 µg/mL)												
CCCCCCCCCCCCOP(=O)([O-])OCC[N+](C)(C)C	350 µM (≈ 123 µg/mL)	0%		0%		0%	175 µM (≈ 61.5 µg/mL)		0%		0%				inactive				inactive
CCCCCCCCCNC(=O)CCCCCOP(=O)([O-])OCC[N+](C)(C)C	> 350 µM	0%	> 350 µM	0%	> 350 µM	0%	> 350 µM		0%	> 350 µM	0%			> 350 µM	inactive				inactive
CCCCCCCCCCCCCCCCCCOP(=O)([O-])OCC[P+](C)(C)C	2.75 µM (≈ 1.24 µg/mL)	2%		97%		40%	2.75 µM (≈ 1.24 µg/mL)		100%		0%	Active			inactive			Active	
CCCCCCCC/C=C/CCCCCCCCOP(=O)([O-])OCC[N+](C)(C)C [ELAIDYLPHOSPHOCHOLINE]	2.75 µM (≈ 1.19 µg/mL)	0%	22 µM (≈ 9.54 µg/mL)	50%	22 µM (≈ 9.54 µg/mL)	0%	2.75 µM (≈ 1.19 µg/mL)	100%	100%	> 350 µM	0%			22 µM (≈ 9.54 µg/mL)					
CC(C)[C@H](NC(=O)CCCCCOP(=O)([O-])OCC[N+](C)(C)C)C(N)=O	> 350 µM	0%		0%		0%	> 350 µM	0%	0%		0%								
CCCCCCCCCCCCCCCCCC(=O)NCC(COP(=O)([O-])OCC[N+](C)(C)C)OC (stereo unspecified)	5.5 µM (≈ 2.95 µg/mL)	0%	44 µM (≈ 23.6 µg/mL)	56%	11 µM (≈ 5.9 µg/mL)	5%	22 µM (≈ 11.8 µg/mL)	100%	100%	> 350 µM	0%			22 µM (≈ 11.8 µg/mL)					
C[N+](C)(C)CCOP(=O)([O-])OCCCCCC(=O)NC12CC3CC(CC(C3)C1)C2	> 350 µM						> 350 µM												
